Results taken from patent US12599642B2, “Compositions derived from Salvia hispanica seeds” (Signum Biosciences, priority 2020, dated 2026).

Columns and labels:
Assay type in all cases: cell-based
[1] = system: S. capitis ATCC ® 27841 ™; assay: MIC, broth microdilution, S. capitis; details: ≥85% inhibition of OD
Source text: (§1) Our skin microbiome houses billions of microbes, many of which are commensal and beneficial, however in some instances can trigger harmful skin inflammation. The potential for compounds to promote a healthy skin microbiome by targeting the “bad” bugs and not harming the “good” bugs is an emerging field of study in dermatology. The purpose of this study was to evaluate the antibacterial activity of the Chia seed extract composition of Example 14 compared to control Doxycycline applied in vitro to planktonic bacteria categorized as “good” (M. luteus ATCC® 4698™, S. hominis ATCC® 27847™, S. warneri ATCC® 27836™, S. epidermidis ATCC® 12228™, S. capitis ATCC®27841™, S. simulans ATCC® 27850™) and another six which are categorized as “bad” (S. aureus ATCC™ 29213™, S. aureus MRSA ATCC® 33592™, S. pyogenes ATTC® 19615™, C. acnes ATCC™ 6919™, C. xerosis ATCC® 373™, C. granulosum ATCC® 25564™).
(§2) Test agents and control were stored at recommended storage temperature until use. Minimum Inhibitory Concentrations (MIC) were determined in vitro using the broth microdilution method. […] Antimicrobial activity was defined as the lowest concentration of each test material that inhibited ≥85% of the optical density (OD) measured in broth media. […]

“bad” strains = assay: MIC, broth microdilution, summary over “bad” strains; details: range over the six “bad” strains
Source text: as §1, §2

[2] = system: S. aureus MRSA ATCC ® 33591 ™; assay: MIC, broth microdilution, S. aureus MRSA; details: ≥85% inhibition of OD
[3] = system: S. hominis ATCC ® 27847 ™; assay: MIC, broth microdilution, S. hominis; details: ≥85% inhibition of OD
Source text: as §1, §2

[4] = system: C. granulosum ATCC ® 25564 ™; assay: MIC, broth microdilution, C. granulosum; details: ≥85% inhibition of OD
Source text: as §1, §2

S. aureus ATCC ® 29213 ™ = assay: MIC, broth microdilution, S. aureus; details: ≥85% inhibition of OD
Source text: as §1, §2

[5] = system: S. warneri ATCC ® 27836 ™; assay: MIC, broth microdilution, S. warneri; details: ≥85% inhibition of OD
Source text: as §1, §2

[6] = system: “good” skin bacteria strains; assay: MIC, broth microdilution, summary over “good” strains; details: range over the six “good” strains
Source text: as §1, §2

M. luteus ATCC ® 4698 ™ = assay: MIC, broth microdilution, M. luteus; details: ≥85% inhibition of OD
Source text: as §1, §2

[7] = system: S. epidermidis ATCC ® 12228 ™; assay: MIC, broth microdilution, S. epidermidis; details: ≥85% inhibition of OD
Source text: as §1, §2

[8] = system: S. pyogenes ATCC ® 19615 ™; assay: MIC, broth microdilution, S. pyogenes; details: ≥85% inhibition of OD
Source text: as §1, §2

[9] = system: S. simulans ATCC ® 27850 ™; assay: MIC, broth microdilution, S. simulans; details: ≥85% inhibition of OD
Source text: as §1, §2

C. xerosis ATCC ® 373 ™ = assay: MIC, broth microdilution, C. xerosis; details: ≥85% inhibition of OD
Source text: as §1, §2

C. acnes ATCC ® 6919 ™ = assay: MIC, broth microdilution, C. acnes; details: ≥85% inhibition of OD
Source text: as §1, §2

Doxycycline hyclate was tested, and the MIC [1] was “(0.00007) % w/v”, the MIC ([1]; mean ± StDev of 3 experiments) was 0.65 ± 0.23 µg/mL and the “MIC for “bad” strains” value (“bad” strains) was 0.1 to 20.8 µg/mL. The MIC [2] was “(0.0020) % w/v”, the MIC ([2]; mean ± StDev of 3 experiments) was 20.83 ± 7.22 µg/mL and the MIC [3] was “(0.0010) % w/v”. For the same substance, the MIC ([3]; mean ± StDev of 3 experiments) was 10.42 ± 3.61 µg/mL, the MIC [4] was “(0.00001) % w/v” and the MIC ([4]; mean ± StDev of 3 experiments) was 0.13 ± 0.06 µg/mL. For the same substance, the MIC (S. aureus ATCC ® 29213 ™) was “(0.00002) % w/v”, the MIC (S. aureus ATCC ® 29213 ™; mean ± StDev of 3 experiments) was 0.20 ± 0.00 µg/mL and the MIC [5] was “(0.00003) % w/v”. For the same substance, the MIC ([5]; mean ± StDev of 3 experiments) was 0.31 ± 0.41 µg/mL, the “MIC for “good” strains” value [6] was 0.1 to 10.4 µg/mL and the MIC (M. luteus ATCC ® 4698 ™) was “(0.00001) % w/v”. For the same substance, the MIC (M. luteus ATCC ® 4698 ™; mean ± StDev of 3 experiments) was 0.10 ± 0.00 µg/mL, the MIC [7] was “(0.00013) % w/v” and the MIC ([7]; mean ± StDev of 3 experiments) was 1.30 ± 0.45 µg/mL. For the same substance, the MIC [8] was “(0.00001) % w/v”, the MIC ([8]; mean ± StDev of 3 experiments) was 0.11 ± 0.07 µg/mL and the MIC [9] was “(0.00013) % w/v”. For the same substance, the MIC ([9]; mean ± StDev of 3 experiments) was 1.04 ± 0.45 µg/mL, the MIC (C. xerosis ATCC ® 373 ™) was “(0.00003) % w/v” and the MIC (C. xerosis ATCC ® 373 ™; mean ± StDev of 3 experiments) was 0.33 ± 0.11 µg/mL. For the same substance, the MIC (C. acnes ATCC ® 6919 ™) was “(0.00003) % w/v” and the MIC (C. acnes ATCC ® 6919 ™; mean ± StDev of 3 experiments) was 0.26 ± 0.11 µg/mL.
